# Measured values: PubChem BioAssay (NCI)
#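 Abbreviation: GI50, concentration required for 50% inhibition of growth. At the TGI there is no net growth.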
# What was measured:
# Assay in all cases: NCI-60 cell line screen, 384-well format
# [1] = system: A498 renal
# [2] = system: A549 NSCLC
# [3] = system: ACHN renal
# [4] = system: BT-549 breast
# [5] = system: CAKI-1 renal
# [6] = system: COLO 205 colon
# [7] = system: DU-145 prostate
# [8] = system: EKVX NSCLC
# [9] = system: HCT-116 colon
# [10] = system: HCT-15 colon
# [11] = system: HL-60(TB) leukemia
# [12] = system: HOP-62 NSCLC
# [13] = system: HOP-92 NSCLC
# [14] = system: HS 578T breast
# [15] = system: HT29 colon
# [16] = system: IGROV1 ovarian
# [17] = system: K-562 leukemia
# [18] = system: KM12 colon
# [19] = system: M14 melanoma
# [20] = system: MALME-3M melanoma
# [21] = system: MCF7 breast
# [22] = system: MDA-MB-231 breast
# [23] = system: MDA-MB-435 melanoma
# [24] = system: MDA-MB-468 breast
# [25] = system: MOLT-4 leukemia
# [26] = system: NCI-H226 lung
# [27] = system: NCI-H23 lung
# [28] = system: NCI-H322M lung
# [29] = system: NCI-H522 lung
# [30] = system: OVCAR-3 ovarian
# [31] = system: OVCAR-4 ovarian
# [32] = system: OVCAR-5 ovarian
# [33] = system: OVCAR-8 ovarian
# [34] = system: PC-3 prostate
# [35] = system: RXF 393 renal
# [36] = system: SF-268 CNS
# [37] = system: SF-295 CNS
# [38] = system: SF-539 CNS
# [39] = system: SK-MEL-2 melanoma
# [40] = system: SK-MEL-28 melanoma
# [41] = system: SN12C renal
# [42] = system: SNB-19 CNS
# [43] = system: SNB-75 CNS
# [44] = system: SR leukemia
# [45] = system: SW-620 colon
# [46] = system: T-47D breast
# [47] = system: TK-10 renal
# [48] = system: U251 glioblastoma
# [49] = system: UACC-257 melanoma
# [50] = system: UACC-62 melanoma
# [51] = system: UO-31 renal
structure (smiles),measurement,setting,value
CNC(=O)c1cn(C[C@H](F)CCc2ccc(NC(=O)Cc3cc(OC4CC(F)(F)C4)cc(C)n3)nn2)nn1,GI50,[1],0.163 µM
same,TGI,[1],0.492 µM
same,GI50,[2],0.0278 µM
same,TGI,[2],0.0879 µM
same,GI50,[3],> 100 µM
same,TGI,[3],> 100 µM
same,GI50,[4],> 100 µM
same,TGI,[4],> 100 µM
same,GI50,[5],0.38 µM
same,TGI,[5],> 100 µM
same,GI50,[6],> 100 µM
same,TGI,[6],> 100 µM
same,GI50,[7],0.401 µM
same,TGI,[7],7.68 µM
same,GI50,[8],> 100 µM
same,TGI,[8],> 100 µM
same,GI50,[9],> 100 µM
same,TGI,[9],> 100 µM
same,GI50,[10],> 100 µM
same,TGI,[10],> 100 µM
same,GI50,[11],> 100 µM
same,TGI,[11],> 100 µM
same,GI50,[12],0.127 µM
same,TGI,[12],0.594 µM
same,GI50,[13],> 100 µM
same,TGI,[13],> 100 µM
same,GI50,[14],0.0721 µM
same,TGI,[14],0.533 µM
same,GI50,[15],> 100 µM
same,TGI,[15],> 100 µM
same,GI50,[16],> 100 µM
same,TGI,[16],> 100 µM
same,GI50,[17],85.1 µM
same,TGI,[17],> 100 µM
same,GI50,[18],0.946 µM
same,TGI,[18],> 100 µM
same,GI50,[19],> 100 µM
same,TGI,[19],> 100 µM
same,GI50,[20],> 100 µM
same,TGI,[20],> 100 µM
same,GI50,[21],> 100 µM
same,TGI,[21],> 100 µM
same,GI50,[22],0.389 µM
same,TGI,[22],> 100 µM
same,GI50,[23],> 100 µM
same,TGI,[23],> 100 µM
same,GI50,[24],> 100 µM
same,TGI,[24],> 100 µM
same,GI50,[25],66.8 µM
same,TGI,[25],> 100 µM
same,GI50,[26],> 100 µM
same,TGI,[26],> 100 µM
same,GI50,[27],> 100 µM
same,TGI,[27],> 100 µM
same,GI50,[28],0.0772 µM
same,TGI,[28],0.321 µM
same,GI50,[29],0.31 µM
same,TGI,[29],> 100 µM
same,GI50,[30],> 100 µM
same,TGI,[30],> 100 µM
same,GI50,[31],> 100 µM
same,TGI,[31],> 100 µM
same,GI50,[32],> 100 µM
same,TGI,[32],> 100 µM
same,GI50,[33],> 100 µM
same,TGI,[33],> 100 µM
same,GI50,[34],> 100 µM
same,TGI,[34],> 100 µM
same,GI50,[35],0.0276 µM
same,TGI,[35],0.11 µM
same,GI50,[36],0.407 µM
same,TGI,[36],> 100 µM
same,GI50,[37],1.51 µM
same,TGI,[37],> 100 µM
same,GI50,[38],> 100 µM
same,TGI,[38],> 100 µM
same,GI50,[39],0.436 µM
same,TGI,[39],> 100 µM
same,GI50,[40],> 100 µM
same,TGI,[40],> 100 µM
same,GI50,[41],0.0398 µM
same,TGI,[41],0.32 µM
same,GI50,[42],> 100 µM
same,TGI,[42],> 100 µM
same,GI50,[43],> 100 µM
same,TGI,[43],> 100 µM
same,GI50,[44],18.8 µM
same,TGI,[44],> 100 µM
same,GI50,[45],> 100 µM
same,TGI,[45],> 100 µM
same,GI50,[46],> 100 µM
same,TGI,[46],> 100 µM
same,GI50,[47],0.31 µM
same,TGI,[47],> 100 µM
same,GI50,[48],0.119 µM
same,TGI,[48],> 100 µM
same,GI50,[49],> 100 µM
same,TGI,[49],> 100 µM
same,GI50,[50],> 100 µM
same,TGI,[50],> 100 µM
same,GI50,[51],> 100 µM
same,TGI,[51],> 100 µM
